# Data published in the supplement of paper PMC10307832.
# Tests used:
# Test in all cases: relative viability (nuclei count vs DMSO), 5 days (fraction); higher = more cells survive
# SGI-1776 + Lapatinib = compound: CN1CCC(CNc2ccc3ncc(-c4cccc(OC(F)(F)F)c4)n3n2)CC1 [SGI-1776] + CS(=O)(=O)CCNCc1ccc(-c2ccc3ncnc(Nc4ccc(OCc5cccc(F)c5)c(Cl)c4)c3c2)o1 [Lapatinib] (partner 2 µM)
# Method in brief: (§1)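 Lung cancer cell lines in 1536-well plates were dosed by pin tool the day after seeding, either with one drug alone or with a fixed anchor-drug dose plus five library-drug doses (not always all listed) in √10 steps. After 5 days, cells were fixed and their nuclei stained in one step (final 0.05% Triton X-100, 1% formaldehyde, 1 ug/ml Hoechst), then counted on 4× images. Relative viability is the nuclei count in treated wells divided by that in vehicle wells. Values are medians of duplicate plates.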
# Entinostat + Dasatinib = compound: Nc1ccccc1NC(=O)c1ccc(CNC(=O)OCc2cccnc2)cc1 [Entinostat] + Cc1nc(Nc2ncc(C(=O)Nc3c(C)cccc3Cl)s2)cc(N2CCN(CCO)CC2)n1 [Dasatinib] (partner 0.075 µM)
# Method in brief: as §1
# SGI-1776 + Crizotinib = compound: CN1CCC(CNc2ccc3ncc(-c4cccc(OC(F)(F)F)c4)n3n2)CC1 [SGI-1776] + C[C@@H](Oc1cc(-c2cnn(C3CCNCC3)c2)cnc1N)c1c(Cl)ccc(F)c1Cl [Crizotinib] (partner 1 µM)
# Method in brief: as §1
Cell Line,relative viability (SGI-1776 + Lapatinib; first compound 0.08 µM),relative viability (SGI-1776 + Lapatinib; first compound 0.8 µM),relative viability (SGI-1776 + Lapatinib; first compound 2.53 µM),relative viability (SGI-1776 + Lapatinib; first compound 8 µM),relative viability (Entinostat + Dasatinib; first compound 0.02 µM),relative viability (Entinostat + Dasatinib; first compound 0.06325 µM),relative viability (Entinostat + Dasatinib; first compound 0.2 µM),relative viability (Entinostat + Dasatinib; first compound 0.6325 µM),relative viability (Entinostat + Dasatinib; first compound 2 µM),relative viability (SGI-1776 + Crizotinib; first compound 0.08 µM),relative viability (SGI-1776 + Crizotinib; first compound 0.8 µM),relative viability (SGI-1776 + Crizotinib; first compound 2.53 µM),relative viability (SGI-1776 + Crizotinib; first compound 8 µM)
NCI-H2170,0.263,0.269,0.275,0.275,0.532,0.636,0.69,0.558,0.365,1.13,1.28,1.17,0.969
HCC-366,1.12,0.95,0.992,0.837,0.679,0.663,0.527,0.512,0.196,0.549,0.557,0.393,0.098
NCI-H2405,0.994,1.14,1.19,0.728,0.239,0.208,0.217,0.182,0.129,0.857,0.809,0.854,0.642
COR-L 105,0.332,0.394,0.388,0.244,0.337,0.407,0.36,0.344,0.232,1.03,0.717,0.464,0.287
201T,1,0.981,1.02,0.942,0.651,0.559,0.58,0.421,0.313,1.05,1.04,1.01,1.01
NCI-H2228,0.816,1.21,0.927,0.415,0.446,0.358,0.3,0.208,0.126,0.523,0.417,0.396,0.15
LCLC-103H,,,,,0.478,0.458,0.48,0.362,0.224,1.03,1.04,1.03,0.958
NCI-H2087,1.1,1.03,1.09,1.13,1,0.837,0.711,0.373,0.204,0.724,0.907,1.19,0.758
NCI-H358,0.434,0.469,0.352,0.292,0.181,0.136,0.158,0.115,0.109,0.53,0.393,0.244,0.292
H3255,0.285,0.33,0.259,0.198,0.397,0.37,0.27,0.32,0.265,1.03,1.01,0.896,0.62
NCI-H23,1.21,0.984,0.917,1.17,0.781,0.971,0.961,0.741,0.378,0.747,0.368,0.383,0.256
CAL-12T,0.635,0.61,0.871,0.598,0.571,0.427,0.375,0.295,0.218,0.682,0.327,0.254,0.232
A-427,1.05,1.02,1.01,0.966,0.707,0.679,0.614,0.525,0.442,0.849,0.92,0.974,0.601
HARA,0.886,0.856,0.617,0.586,0.299,0.256,0.256,0.273,0.168,1.17,1.17,1.01,0.775
NCI-H1793,0.701,0.749,0.668,0.974,0.422,0.404,0.376,0.228,0.192,,,,
NCI-H1623,,,,,0.644,0.525,0.478,0.412,0.366,,,,
NCI-H2023,0.918,1.21,1.04,0.219,0.55,0.439,0.326,0.135,0.0809,0.565,0.621,0.56,0.333
ABC-1,1.36,1.16,1.28,1.1,0.47,0.751,0.663,0.51,0.486,0.989,1.17,0.707,0.317
LC-2-ad,1.04,0.95,1.01,0.88,0.516,0.533,0.428,0.222,0.165,0.53,0.47,0.414,0.36
NCI-H441,,,,,0.705,0.602,0.557,0.259,0.124,0.701,0.54,0.731,0.61
NCI-H1915,0.981,0.95,0.972,0.949,0.336,0.27,0.238,0.173,0.151,0.945,0.864,0.833,0.918
